Drawing on ChEMBL document CHEMBL4229535, “Design, synthesis and evaluation of oxime-functionalized nitrofuranylamides as novel antitubercular agents” (2018), this text covers MIC90 and Ratio for seven compounds.

Each structure is given as a SMILES string. Converted amounts (≈) assume the structure as drawn.

The term MIC90 denotes an inhibitory concentration at the 90% level, which refers to growth in some studies and to a panel of isolates in others.

Holding throughout (type): functional
Assay [1] concerns Mycobacterium tuberculosis. As to the kind of experiment: Antimycobacterial activity against multidrug-resistant Mycobacterium tuberculosis isolate 16833 after 7 days by microplate alamar blue assay. The conditions noted are these: isolate 16833, 168 h. On the technique in general: Resazurin is reduced to fluorescent resorufin, in cell work by metabolically active cells.
For assay [2], the system named is Mycobacterium tuberculosis. Description: Antimycobacterial activity against multidrug-resistant Mycobacterium tuberculosis isolate 16995 after 7 days by microplate alamar blue assay. The settings on record: isolate 16995, 168 h.
The nature of assay [3]: Resistance index, ratio of MIC>90 for multidrug-resistant Mycobacterium tuberculosis clinical isolate 16833 to MIC>90 for Mycobacterium tuberculosis H37Rv ATCC 27294.
Assay [4] in a line: Resistance index, ratio of MIC>90 for multidrug-resistant Mycobacterium tuberculosis clinical isolate 16995 to MIC>90 for Mycobacterium tuberculosis H37Rv ATCC 27294.

Take `CO/N=C1\CCN(C(=O)c2ccc([N+](=O)[O-])o2)C1`: the MIC90 in assay [1] was determined as 1.93 µg/mL (≈ 7.61 µM); in assay [2], 1.91 µg/mL (≈ 7.54 µM). The Ratio in assay [3] and in assay [4] was 1 each time.

`NNC(=O)c1ccncc1` [ISONIAZID]: the MIC90 in assay [1] and in assay [2] was above 40 µg/mL in each case.

In the case of `O=C(c1ccc([N+](=O)[O-])o1)N1CCc2ccccc21`, the MIC90 in assay [1] and in assay [2] was above 4 µg/mL throughout.

Consider `CO[C@H]1/C=C/O[C@@]2(C)Oc3c(C)c(O)c4c(O)c(c(/C=N/N5CCN(C)CC5)c(O)c4c3C2=O)NC(=O)/C(C)=C\C=C\[C@H](C)[C@H](O)[C@@H](C)[C@@H](O)[C@@H](C)[C@H](OC(C)=O)[C@@H]1C` [RIFAMPIN], for which the MIC90 in assay [1] and in assay [2] was above 40 µg/mL throughout.

With `O=C(c1ccc([N+](=O)[O-])o1)N1CC/C(=N\OCc2ccccc2)C1`, the MIC90 worked out at 0.207 µg/mL (≈ 0.629 µM) in assay [1] and 0.38 µg/mL (≈ 1.15 µM) in assay [2]. Besides, the Ratio in assay [3] and in assay [4] was 1 each time.

`O=C(c1ccc([N+](=O)[O-])o1)N1CCC(=NOCc2ccccc2)CC1`: the MIC90 is 0.482 µg/mL (≈ 1.4 µM) in assay [1] and 0.426 µg/mL (≈ 1.24 µM) in assay [2]. For the same compound, the Ratio in assay [3] and in assay [4] was 1 in each case.

On to `CON=C1CCN(C(=O)c2ccc([N+](=O)[O-])o2)CC1`, for which the MIC90 in assay [1] is 1.91 µg/mL (≈ 7.16 µM); in assay [2] it was 1.94 µg/mL (≈ 7.24 µM). For the same compound, the Ratio in assay [3] and in assay [4] was 1 in each case.
